Data reported in US6759538B2, “Substituted diphenyl heterocycles useful for treating HCV infection” (priority 2001, dated 2004).

Target: HCV replicon
Assay: HCV replicon assay (luciferase)
Format: cell-based, Hepatitis C virus (HCV)
Settings: 5-2 Luc replicon cells, 24 hours with compound, luciferase emission; first symbol of Replicon/Western
Source text: In one embodiment, the inhibitory activity of the compounds can be confirmed in a replicon assay that assesses the ability of a test compound to block or inhibit HCV replication in replicon cells. One example of a suitable replicon assay is the liver cell-line Huh 7-based replicon assay described in Lohmann et al., 1999, Science 285:110-113. A specific example of this replicon assay which utilizes luciferase translation is provided in the Examples Section. In one embodiment of this assay, the amount of test compound that yields a 50% reduction in translation as compared to a control cell (IC50) may be determined.
The inhibitory activity of certain exemplary compounds of the invention was confirmed using an HCV replicon assay. The HCV replicon can include such features as the HCV 5′ untranslated region including the HCV IRES, the HCV 3′ untranslated region, selected HCV genes encoding HCV polypeptides, selectable markers, and a reporter gene such as luciferase, GFP, etc. In the assay, actively dividing 5-2 Luc replicon-comprising cells (obtained from Rolf Bartenschlager; see Lohmann et al., 1999, Science 285:110-113) were seeded at a density of between about 5,000 and 7,500 cells/well onto 96 well plates (about 90 μl of cells per well) and incubated at 37° C. and 5% CO2 for 24 hours. Then, the test compound (in a volume of about 10 μl) was added to the wells at various concentrations and the cells were incubated for an additional 24 hours before luciferase assay. The media was aspirated from each well and Bright-Glo (Promega, Madison, Wis.) luciferase assay reagents were added to each well according to the manufacturer's instructions. Briefly, the Bright-Glo reagent was diluted 1:1 with PBS and 100 μl of diluted reagent was added to each well. After 5 min of incubation at room temperature, luciferin emission was quantified with a luminometer. In this assay, the amount of test compound that yielded a 50% reduction in luciferase emission (IC50) was determined.

Molecule	IC50
O=C(Nc1cccc(-c2cc(-c3c(Cl)ccc(Cl)c3Cl)no2)c1)C(Cl)Cl [Compound 137, 2,2-Dichloro-N-[3-[3-(2,3,6-trichlorophenyl)-5-isoxazolyl]phenyl] Acetamide]	> 10 µM
O=C(Nc1cccc(-c2cc(-c3ccccc3C(F)(F)F)no2)c1)C(Cl)Cl [Compound 33, 2,2-Dichloro-N-[3-[3-(2-trifluoromethylphenyl)-5-isoxazolyl]phenyl] Acetamide]	≤ 10 µM
O=C(Nc1cccc(-c2cc(-c3c(Cl)cc(Cl)cc3OCCN3CCOCC3)no2)c1)C(Cl)Cl [Compound 143, 2,2-Dichloro-N-[3-[3-[2,4-dichloro-6-(N-morpholino-2-ethyleneoxy)phenyl]-5-isoxazolyl]-phenyl] Acetamide]	> 10 µM
2,2-Dichloro-N-[3-[3-[2,6-dimethyl-4-(N-morpholino-2-ethyleneoxy)phenyl]-5-isoxazolyl]phenyl] Acetamide [Compound 23]	≤ 10 µM
COc1ccc(-c2cc(-c3c(Cl)cccc3Cl)no2)cc1NC(=O)C(Cl)Cl [Compound 173, 2,2-Dichloro-N-[3-[3-(2,6-dichlorophenyl)-5-isoxazolyl]-6-methoxyphenyl] Acetamide]	≤ 10 µM
O=C(Nc1cccc(-c2cc(-c3c(F)cccc3C(F)(F)F)no2)c1)C(Cl)Cl [Compound 41, 2,2-Dichloro-N-[3-[3-(2-fluoro-6-trifluoromethylphenyl)-5-isoxazolyl]phenyl] Acetamide]	≤ 10 µM
Cc1ccc(-c2cc(-c3c(Cl)cccc3Cl)no2)cc1NC(=O)C(Cl)Cl [Compound 165, 2,2-Dichloro-N-[3-[3-(2,6-dichlorophenyl)-5-isoxazolyl]-6-methylphenyl] Acetamide]	> 10 µM
CC(C)c1ccccc1-c1cc(-c2cccc(NC(=O)C(Cl)Cl)c2)on1 [Compound 63, 2,2-Dichloro-N-[3-[3-(2-isopropylphenyl)-5-isoxazolyl]phenyl] Acetamide]	≤ 10 µM
CC(C)c1cccc(Cl)c1-c1cc(-c2cccc(NC(=O)C(Cl)Cl)c2)on1 [Compound 39, 2,2-Dichloro-N-[3-[3-(2-chloro-6-isopropylphenyl)-5-isoxazolyl]phenyl] Acetamide]	≤ 10 µM
O=C(Nc1cccc(-c2noc(-c3c(Cl)cccc3Cl)n2)c1)C(Cl)Cl [Compound 87, 2,2-Dichloro-N-[3-[5-(2,6-dichlorophenyl)-3-(1,2,4-oxadiazolyl)]phenyl] Acetamide]	≤ 10 µM
O=C(Nc1cccc(-c2cc(-c3c(Cl)cccc3C3CCCCC3)no2)c1)C(Cl)Cl [Compound 111, 2,2-Dichloro-N-[3-[3-(2-chloro-6-cyclohexylphenyl)-5-isoxazolyl]phenyl] Acetamide]	≤ 10 µM
COc1cccc(C(F)(F)F)c1-c1cc(-c2cccc(NC(=O)C(Cl)Cl)c2)on1 [Compound 77, 2,2-Dichloro-N-[3-[3-(2-methoxy-6-trifluoromethylphenyl)-5-isoxazolyl]phenyl] Acetamide]	≤ 10 µM
COC(=O)c1ccccc1-c1cc(-c2cccc(NC(=O)C(Cl)Cl)c2)on1 [Compound 115, 2,2-Dichloro-N-[3-[3-(2-carbomethoxy)phenyl-5-isoxazolyl]phenyl] Acetamide]	≤ 10 µM
COc1cccc(C)c1-c1cc(-c2cccc(NC(=O)C(Cl)Cl)c2)on1 [Compound 91, 2,2-Dichloro-N-[3-[3-(2-methoxy-6-methylphenyl)-5-isoxazolyl]phenyl] Acetamide]	≤ 10 µM
O=C(Nc1cccc(-c2cc(-c3c(C4CCCC4)cccc3C(F)(F)F)no2)c1)C(Cl)Cl [Compound 105, 2,2-Dichloro-N-[3-[3-(2-cyclopentyl-6-trifluoromethylphenyl)-5-isoxazolyl]phenyl] Acetamide]	≤ 10 µM
Cc1cccc(C)c1-c1cc(-c2cccc(NC(=O)C(Cl)Cl)c2)on1 [Compound 47, 2,2-Dichloro-N-[3-[3-(2,6-dimethylphenyl)-5-isoxazolyl]phenyl] Acetamide]	≤ 10 µM
O=C(Nc1cccc(-c2cc(-c3ccccc3C3CCCC3)no2)c1)C(Cl)Cl [Compound 129, 2,2-Dichloro-N-[3-[3-(2-cyclopentylphenyl)-5-isoxazolyl]phenyl] Acetamide]	≤ 10 µM
COc1cccc(Cl)c1-c1cc(-c2cccc(NC(=O)C(Cl)Cl)c2)on1 [Compound 81, 2,2-Dichloro-N-[3-[3-(2-chloro-6-methoxyphenyl)-5-isoxazolyl]phenyl] Acetamide]	≤ 10 µM

Molecule	IC50
O=C(Nc1cccc(-c2cc(-c3c(F)cccc3I)no2)c1)C(Cl)Cl [Compound 49, 2,2-Dichloro-N-[3-[3-(2-fluoro-6-iodophenyl)-5-isoxazolyl]phenyl] Acetamide]	≤ 10 µM
O=C(Nc1cccc(-c2cc(-c3ccccc3-c3ccccc3)no2)c1)C(Cl)Cl [Compound 123, 2,2-Dichloro-N-[3-[3-(2-phenyl)phenyl-5-isoxazolyl]phenyl] Acetamide]	≤ 10 µM
O=C(Nc1cc(-c2cc(-c3c(Cl)cccc3Cl)no2)ccc1OCCN1CCOCC1)C(Cl)Cl [Compound 171, 2,2-Dichloro-N-[3-[3-(2,6-dichlorophenyl)-5-isoxazolyl]-6-(N-morpholino-2-ethyleneoxy)phenyl] Acetamide]	> 10 µM
Cc1c(NC(=O)C(Cl)Cl)cccc1-c1cc(-c2c(Cl)cccc2Cl)no1 [Compound 167, 2,2-Dichloro-N-[3-[3-(2,6-dichlorophenyl)-5-isoxazolyl]-2-methylphenyl] Acetamide]	> 10 µM
O=C(Nc1cccc(-c2cc(-c3ccccc3OCc3ccccc3)no2)c1)C(Cl)Cl [Compound 161, 2,2-Dichloro-N-[3-[3-(2-benzyloxyphenyl)-5-isoxazolyl]phenyl] Acetamide]	> 10 µM
O=C(Nc1cc(-c2cc(-c3c(Cl)cccc3Cl)no2)ccc1N1CCOCC1)C(Cl)Cl [Compound 169]	> 10 µM
COc1ccc(NC(=O)C(Cl)Cl)cc1-c1cc(-c2c(Cl)cccc2Cl)no1 [Compound 127, 2,2-Dichloro-N-[3-[3-(2,6-dichlorophenyl)-5-isoxazolyl]-4-methoxyphenyl] Acetamide]	≤ 10 µM
CC(C)Oc1ccccc1-c1cc(-c2cccc(NC(=O)C(Cl)Cl)c2)on1 [Compound 119, 2,2-Dichloro-N-[3-[3-(2-isopropyloxyphenyl)-5-isoxazolyl]phenyl] Acetamide]	≤ 10 µM
O=C(Nc1cccc(-c2cc(-c3c(O)cccc3Cl)no2)c1)C(Cl)Cl [Compound 83, 2,2-Dichloro-N-[3-[3-(2-chloro-6-hydroxyphenyl)-5-isoxazolyl]phenyl] Acetamide]	≤ 10 µM
O=C(Nc1cccc(-c2cc(-c3ccccc3OC(F)F)no2)c1)C(Cl)Cl [Compound 45, 2,2-Dichloro-N-[3-[3-(2-difluoromethoxyphenyl)-5-isoxazolyl]phenyl] Acetamide]	≤ 10 µM
Cc1ccc(Cl)c(-c2cc(-c3cccc(NC(=O)C(Cl)Cl)c3)on2)c1F [Compound 51, 2,2-Dichloro-N-[3-[3-(6-chloro-2-fluoro-3-methylphenyl)-5-isoxazolyl]phenyl] Acetamide]	≤ 10 µM
O=C(Nc1cccc(-c2cc(-c3c(O)cccc3C(F)(F)F)no2)c1)C(Cl)Cl [Compound 35, 2,2-Dichloro-N-[3-[3-(2-hydroxy-6-trifluoromethylphenyl)-5-isoxazolyl]phenyl] Acetamide]	≤ 10 µM
CCCCc1cccc(Cl)c1-c1cc(-c2cccc(NC(=O)C(Cl)Cl)c2)on1 [Compound 103, 2,2-Dichloro-N-[3-[3-(2-chloro-6-n-butylphenyl)-5-isoxazolyl]phenyl] Acetamide]	≤ 10 µM
O=C(Nc1cccc(-c2cc(-c3c(Cl)cccc3C3CCCC3)no2)c1)C(Cl)Cl [Compound 97, 2,2-Dichloro-N-[3-[3-(2-chloro-6-cyclopentylphenyl)-5-isoxazolyl]phenyl] Acetamide]	≤ 10 µM
O=C(Nc1cccc(-c2cc(-c3c(C4CC4)cccc3C(F)(F)F)no2)c1)C(Cl)Cl [Compound 89, 2,2-Dichloro-N-[3-[3-(2-cyclopropyl-6-trifluoromethylphenyl)-5-isoxazolyl]phenyl] Acetamide]	≤ 10 µM
O=C(CCl)Nc1cccc(-c2cc(-c3c(Cl)cccc3Cl)no2)c1 [Compound 67, 2-Chloro-N-[3-[3-(2,6-dichlorophenyl)-5-isoxazolyl]phenyl] Acetamide]	≤ 10 µM
CN(C)CCN(C)c1cccc(Cl)c1-c1cc(-c2cccc(NC(=O)C(Cl)Cl)c2)on1 [Compound 131, 2-Dichloro-N-[3-[3-[2-chloro-6-(N,N-dimethylethylene-N′-methylamino)phenyl]-5-isoxazolyl]-phenyl] Acetamide]	≤ 10 µM
COc1cccc(F)c1-c1cc(-c2cccc(NC(=O)C(Cl)Cl)c2)on1 [Compound 43, 2,2-Dichloro-N-[3-[3-(2-fluoro-6-methoxyphenyl)-5-isoxazolyl]phenyl] Acetamide]	≤ 10 µM
